What was measured:
PI3Kα = PI3Kα (Homo sapiens (Human), UniProt P42336); conditions: read-out: PI3Kα AlphaScreen ® Ki
[1] = molecular target: human mutant B-raf (HuBraf V600E) (Homo sapiens (Human), UniProt P15056, V600E); conditions: at 10 μM compound concentration; POC = 100 − percent inhibition
[2] = test system: phosphorylation of Akt at Serine 473 in U87 MG cells; test: cells; conditions: Homo sapiens, U-87 MG, 2 h, read-out: U87Cell IC50, pAkt (Ser 473), U87 MG cells, two hours with compound

Chain of PI3Kα (P42336 whole entry): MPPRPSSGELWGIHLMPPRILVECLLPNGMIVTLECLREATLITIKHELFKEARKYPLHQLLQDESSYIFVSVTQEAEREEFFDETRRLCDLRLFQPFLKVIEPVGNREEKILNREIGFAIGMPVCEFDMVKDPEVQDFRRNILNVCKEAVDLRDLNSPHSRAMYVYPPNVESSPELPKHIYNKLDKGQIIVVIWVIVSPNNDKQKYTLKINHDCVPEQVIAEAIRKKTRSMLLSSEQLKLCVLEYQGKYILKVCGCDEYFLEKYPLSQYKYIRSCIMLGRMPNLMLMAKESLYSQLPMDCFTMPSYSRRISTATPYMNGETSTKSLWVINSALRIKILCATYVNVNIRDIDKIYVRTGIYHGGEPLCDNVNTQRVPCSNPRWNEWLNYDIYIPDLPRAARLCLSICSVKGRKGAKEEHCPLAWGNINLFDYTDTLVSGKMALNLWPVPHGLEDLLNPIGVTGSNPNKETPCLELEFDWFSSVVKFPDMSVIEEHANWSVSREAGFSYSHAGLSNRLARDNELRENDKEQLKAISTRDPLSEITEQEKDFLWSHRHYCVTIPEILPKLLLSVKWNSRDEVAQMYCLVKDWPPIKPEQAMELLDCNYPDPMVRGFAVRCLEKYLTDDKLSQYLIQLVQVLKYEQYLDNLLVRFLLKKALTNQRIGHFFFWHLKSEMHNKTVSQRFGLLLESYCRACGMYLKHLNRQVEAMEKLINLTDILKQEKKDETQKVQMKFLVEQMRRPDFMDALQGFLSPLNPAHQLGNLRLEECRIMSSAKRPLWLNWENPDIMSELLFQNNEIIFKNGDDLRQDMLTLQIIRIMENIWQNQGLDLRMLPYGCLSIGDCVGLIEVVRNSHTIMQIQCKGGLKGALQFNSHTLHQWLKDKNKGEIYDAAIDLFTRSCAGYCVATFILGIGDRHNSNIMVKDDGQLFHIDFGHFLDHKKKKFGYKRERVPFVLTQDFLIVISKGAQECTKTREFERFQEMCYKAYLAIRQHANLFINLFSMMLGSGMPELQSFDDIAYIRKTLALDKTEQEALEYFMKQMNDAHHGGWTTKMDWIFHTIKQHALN
Chain of PI3Kα (P27986 whole entry partner): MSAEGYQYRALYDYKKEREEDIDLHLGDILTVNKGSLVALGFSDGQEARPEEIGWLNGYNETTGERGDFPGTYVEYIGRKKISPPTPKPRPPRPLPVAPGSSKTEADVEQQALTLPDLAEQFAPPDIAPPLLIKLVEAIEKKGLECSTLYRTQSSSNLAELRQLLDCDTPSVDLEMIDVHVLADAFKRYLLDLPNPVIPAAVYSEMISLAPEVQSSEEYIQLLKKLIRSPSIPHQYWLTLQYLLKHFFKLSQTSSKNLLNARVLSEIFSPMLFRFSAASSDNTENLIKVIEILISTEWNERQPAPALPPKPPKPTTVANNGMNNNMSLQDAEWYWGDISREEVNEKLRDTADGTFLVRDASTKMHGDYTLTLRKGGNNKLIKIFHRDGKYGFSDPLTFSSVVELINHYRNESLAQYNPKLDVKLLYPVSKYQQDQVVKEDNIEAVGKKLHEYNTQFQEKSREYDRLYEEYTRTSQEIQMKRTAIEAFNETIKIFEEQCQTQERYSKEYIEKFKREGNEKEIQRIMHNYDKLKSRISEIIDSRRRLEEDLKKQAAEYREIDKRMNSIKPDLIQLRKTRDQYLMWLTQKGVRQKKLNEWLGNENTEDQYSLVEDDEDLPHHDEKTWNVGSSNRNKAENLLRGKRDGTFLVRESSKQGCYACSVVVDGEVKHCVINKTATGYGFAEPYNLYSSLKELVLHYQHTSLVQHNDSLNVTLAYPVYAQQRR
Chain of human mutant B-raf (HuBraf V600E) (P15056 whole entry V600E): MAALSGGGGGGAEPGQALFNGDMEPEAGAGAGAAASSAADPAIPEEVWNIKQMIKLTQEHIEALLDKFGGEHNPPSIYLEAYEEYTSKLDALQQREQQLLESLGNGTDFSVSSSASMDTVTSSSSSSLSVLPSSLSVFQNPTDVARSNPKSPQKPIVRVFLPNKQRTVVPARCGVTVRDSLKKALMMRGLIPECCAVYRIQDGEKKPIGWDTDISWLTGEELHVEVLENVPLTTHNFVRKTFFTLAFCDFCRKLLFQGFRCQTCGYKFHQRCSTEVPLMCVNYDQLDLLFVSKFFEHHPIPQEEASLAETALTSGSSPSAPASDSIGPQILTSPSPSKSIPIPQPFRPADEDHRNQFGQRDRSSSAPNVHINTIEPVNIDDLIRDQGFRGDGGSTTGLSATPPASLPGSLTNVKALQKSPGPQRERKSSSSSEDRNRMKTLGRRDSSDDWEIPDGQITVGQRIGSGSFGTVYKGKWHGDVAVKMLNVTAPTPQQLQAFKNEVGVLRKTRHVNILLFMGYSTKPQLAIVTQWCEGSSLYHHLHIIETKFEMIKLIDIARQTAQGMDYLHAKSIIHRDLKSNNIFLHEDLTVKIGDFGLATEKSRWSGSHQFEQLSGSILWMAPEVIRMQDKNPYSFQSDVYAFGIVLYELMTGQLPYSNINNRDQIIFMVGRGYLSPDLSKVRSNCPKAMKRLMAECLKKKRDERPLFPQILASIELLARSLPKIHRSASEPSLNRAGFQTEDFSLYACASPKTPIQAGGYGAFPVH

Ki (PI3Kα) | Mutant B-raf HTRF Assay POC Mean n = 2 [1] | IC50 [2] | Structure (SMILES)
402 nM | 75% of Control (POC) | 1190 nM | COc1ccc(COCc2cnc(Nc3cccc4[nH]ccc34)c(-c3nc(C)nc4[nH]cnc34)c2)cc1 [Example 71, N-(5-((4-methoxybenzyloxy)methyl)-3-(2-methyl-9H-purin-6-yl)pyridin-2-yl)-1H-indol-4-amine]
44 nM | 108% of Control (POC) | 195 nM | COc1ccc(Nc2ncc(CO)cc2-c2nc(C)nc3[nH]cnc23)cn1 [Example 76, (6-(6-Methoxypyridin-3-Ylamino)-5-(2-Methyl-9H-Purin-6-yl)Pyridin-3-yl)Methanol]
359 nM | 62% of Control (POC) | 1540 nM | Cc1nc(N)cc(-c2cnccc2Nc2cccc3[nH]ncc23)n1 [Example 107, N-(3-(6-amino-2-methylpyrimidin-4-yl)pyridin-4-yl)-1H-indazol-4-amine]
9 nM | 99% of Control (POC) | 129 nM | COc1ccc(Nc2cnc(Nc3ccc(OC)nc3)c(-c3nc(C)nc4[nH]cnc34)c2)cc1 [Example 90, N5-(4-methoxyphenyl)-N2-(6-methoxypyridin-3-yl)-3-(2-methyl-9H-purin-6-yl)pyridine-2,5-diamine]
19 nM | 90% of Control (POC) | 133 nM | COc1ccc(Nc2ncc(CN3CCN(S(C)(=O)=O)CC3)cc2-c2nc(C)nc3[nH]cnc23)cn1 [Example 85, N-(6-methoxypyridin-3-yl)-3-(2-methyl-9H-purin-6-yl)-5-((4-(methylsulfonyl)piperazin-1-yl)methyl)pyridin-2-amine]
1330 nM | 87% of Control (POC) | 3070 nM | Cc1nc(N)nc(-c2cccnc2Nc2ccc(N)nc2)n1 [Example 50, N5-(3-(4-Amino-6-Methyl-1,3,5-Triazin-2-yl)Pyridin-2-yl)Pyridine-2,5-Diamine]
107 nM | 96% of Control (POC) | 441 nM | COc1ccc(Nc2ncc(N3CCOCC3)cc2-c2nc(C)nc3[nH]cnc23)cn1 [Example 97]
23 nM | 94% of Control (POC) | 179 nM | COc1ccc(Nc2ncc(CCO)cc2-c2nc(C)nc3[nH]cnc23)cn1 [Example 75, 2-(6-(6-methoxypyridin-3-ylamino)-5-(2-methyl-9H-purin-6-yl)pyridin-3-yl)ethanol]
720 nM | 66% of Control (POC) | 3630 nM | Cc1nc(-c2cc(Cl)cnc2Nc2cccc3[nH]ncc23)c2nc[nH]c2n1 [Example 61, N-(5-Chloro-3-(2-methyl-9H-purin-6-yl)pyridin-2-yl)-1H-indazol-4-amine]
50 nM | 107% of Control (POC) | > 10000 nM | Cc1nc(-c2cc(Br)cnc2Nc2cccc3[nH]ncc23)c2nc[nH]c2n1 [Example 64, N-(5-bromo-3-(2-methyl-9H-purin-6-yl)pyridin-2-yl)-1H-indazol-4-amine]
33 nM | 77% of Control (POC) | 8530 nM | Cc1nc(-c2cc(CO)cnc2Nc2cccc3[nH]ncc23)c2nc[nH]c2n1 [Example 72, (6-(1H-indazol-4-ylamino)-5-(2-methyl-9H-purin-6-yl)pyridin-3-yl)methanol]
97 nM | 97% of Control (POC) | 1910 nM | COc1ccc(Nc2ncc(CN3CCNCC3)cc2-c2nc(C)nc3[nH]cnc23)cn1 [Example 84, N-(6-methoxypyridin-3-yl)-3-(2-methyl-9H-purin-6-yl)-5-(piperazin-1-ylmethyl)pyridin-2-amine]
